Consider four molecules from patent publication US20240409557A1, “5,6-FUSED AND 6,6-FUSED BICYCLIC ALCOHOLS AND ETHERS AND COMPOSITIONS FOR USE AS 15-PROSTAGLANDIN DEHYDROGENASE MODULATORS” (AMGEN INC., priority 2023, published 2024).

pIC50: −log10 of the molar value.

As a reminder, the pIC50 is −log10 of the IC50, conventionally taken in molar units.

Assay [1] addresses T1, human recombinant 15-PGDH (Homo sapiens, UniProt P15428).
T1 sequence (P15428 1-266): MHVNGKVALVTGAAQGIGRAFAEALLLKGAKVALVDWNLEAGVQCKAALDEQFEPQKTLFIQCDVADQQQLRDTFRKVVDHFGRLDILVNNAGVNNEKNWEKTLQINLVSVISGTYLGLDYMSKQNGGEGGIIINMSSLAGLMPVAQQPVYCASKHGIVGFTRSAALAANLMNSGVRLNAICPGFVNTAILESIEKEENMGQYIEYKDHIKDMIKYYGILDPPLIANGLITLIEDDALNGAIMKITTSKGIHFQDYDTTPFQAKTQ
Put plainly: Recombinant 15-PGDH enzymatic inhibition assay (PGDH-Lumi, NADH signal). It counts as biochemical. The note with it: for pIC50: recombinant 15-PGDH, 15 min pre-incubation, 60 min reaction with PGE2 and NAD+, NADH signal. The procedure, abridged: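 Buffer 50 mM Tris pH 7.5 with 0.01% Tween-20 and […]; compound, 22 two-fold dilutions, pre-incubated with enzyme 15 min before substrate.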

In assay [2] the test system is DSS-induced colitis in C57BL/6 mice. The assay can be described thus: In vivo mouse DSS study - histopathological analysis of colon. The following applies: versus DSS + vehicle. How it is done:
Histopathological analysis was performed on the […] mice from the DSS study described above. Analysis was performed on mice from the B15R, B30R, or B41R groups. Briefly, mouse colon tissues were collected at necropsy, flushed with PBS, manipulated intact into individual modified Swiss rolls, placed into separate tissue cassettes and fixed for approximately 24 hours by immersion in 10% neutral buffered formalin followed by transfer to […]. Fixed tissues were routinely processed, paraffin-embedded, sectioned, mounted on glass slides and hematoxylin and eosin stained. Glass slides were scanned and digital images were accessed for histopathology evaluation. Prior to histopathology assessment, metadata for all digital images reviewed was exported from a digital pathology platform database into an Excel spreadsheet, followed by assignment of each digital image with a random number (greater than 0 and less than 1) using the RAND function in Excel. From smallest to largest random number assigned, each digital image was retrieved for evaluation using only the RTLIMS Inventory Code as the unique identifier for each digital image. Each digital image was individually reviewed without knowledge of treatment group (blinded/masked evaluation), and with the slide label image hidden when viewing digital images. […] Scoring of tissues for DSS-induced colitis was performed using a scoring system and criteria modified and adapted from BolderBioPATH, Inc./Inotiv. Ordinal data (histopathology scores) were analyzed using a non-parametric Kruskal-Wallis one-way analysis of variance test followed by a Dunn's multiple comparison test (GraphPad Prism).
The following scoring systems were used to provide histological scores: […]

Assay [3] relates to DSS-induced colitis in C57BL/6 female mice. Put plainly: In vivo mouse DSS study - colon length. The following applies: for Colon length Mean: oral gavage, day 10; for Recovery % (vs vehicle) / Reduction % (vs naïve): colon length. The protocol:
In this study, 12-week-old C57BL/6 female mice (Taconic, the Cambridge City) were supplemented with 2.5% DSS (MP Biomedicals, MW 36,000-50,000) in drinking water for days 0-7, and then switched to normal drinking water beginning on day 7 and continued through day 10. Mice were treated once/twice daily by oral gavage with different compounds of Formula (A) (e.g., B15S, B15R, B30R, or B41R) in different dosing levels or with vehicle solution of 2% HPMC, 1% Tween 80 (w/v) in DI water starting on day 0. Mice were sacrificed on day 10 for assessment of colon length. The DSS-induced model of colitis is a widely used animal model for studying the pathogenesis of and potential treatments for UC, which is a primary form of IBD. DSS water intake causes colonic mucosa injury and erosion, gland loss, and infiltration of proinflammatory immune cells in the colon tissue, followed by mucosal repair and tissue remodeling. This is manifested by a shortened colon, the degree of which correlates well with the severity of mucosal injury in this mouse model of DSS-induced experimental colitis.

For another assay, the target named is T2, 15-PGDH in A549 cells (Homo sapiens, UniProt P15428).
T2 construct: endogenous in cells; host or cells: A549
T2 sequence (P15428 1-266): T1 sequence (P15428 1-266)
The assay can be described thus: A549 cellular 15-PGDH assay (PGE2 accumulation, HTRF). Type of assay: cell-based. The note with it: interleukin-stimulated, inhibitor 24 hrs, PGE2 by competitive HTRF, read-out: A549 Cell Assay IC50. Put shortly:
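Supernatant PGE2 was quantified by competitive HTRF, in which sample PGE2 blocks FRET between a europium cryptate-labelled antibody and labelled PGE2. It came from A549 epithelial cells induced with IL-13. IC50s were calculated from the inversely proportional signal.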
(In general: Time-resolved FRET reads energy transfer from a long-lived donor to a nearby acceptor.)

Consider `Cn1cc2cc(-c3ccc4cc([C@H](O)C5CCOCC5)sc4n3)cnc2n1` (single isomer, unassigned) [Compound B15R], for which the pIC50 in assay [1] was 9.40. Further, in assay [2] (all doses evaluated), the erosion scores result is recorded as “decreased severity”, the gland loss scores result is “decreased severity”, the inflammation scores entry is “decreased severity” and the “sum of histopathology scores” value is recorded as “decreased severity”. Further, in assay [3] (0.625 mpk, BID), the “Colon length Mean” value amounted to 7.6 cm, the “Recovery % (vs vehicle)” value is on record as 42.29% and the “Reduction % (vs naïve)” value was found to be 14.97%. In assay [3] (1.25 mpk, QD), the “Colon length Mean” value was determined as 7.84 cm, the “Recovery % (vs vehicle)” value is 57.64% and the “Reduction % (vs naïve)” value turned out to be 12.28%. Moreover, in assay [3] (2.5 mpk, BID), the “Colon length Mean” value turned out to be 8.09 cm, the “Recovery % (vs vehicle)” value worked out at 63.43% and the “Reduction % (vs naïve)” value stood at 8.09%. In assay [3] (5 mpk, QD), the “Colon length Mean” value is listed as 7.89 cm, the “Recovery % (vs vehicle)” value amounted to 54.80% and the “Reduction % (vs naïve)” value stood at 11.72%. Moreover, the “colon length comparing to vehicle group” value in assay [3] (different doses daily) was “significant improvement of colon length”. For the same molecule, on 15-PGDH in A549 cells, the negative logarithm of the IC50 (pIC50) was 9.25.
For the molecule `Cn1cc2cc(-c3ccc4cc([C@H](O)C5CC(F)(F)C5)sc4n3)cnc2n1` (single isomer, unassigned) [Compound B30R], the pIC50 in assay [1] is 9.80; at 15-PGDH in A549 cells, 9.63. For the same molecule, the erosion scores result in assay [2] (all doses evaluated) is on record as “decreased severity”. Further, the inflammation scores entry in assay [2] (all doses evaluated) is given as “decreased severity”. Moreover, the “sum of histopathology scores” value in assay [2] (all doses evaluated) is “decreased severity”. In addition, the gland loss scores result in assay [2] (at 0.625 mg/kg BID, 1.25 mg/kg QD, 2.5 mg/kg BID and 5 mg/kg QD) is “decreased severity”. The “Colon length Mean” value in assay [3] (0.625 mpk, BID) is given as 7.622 cm; in assay [3] (1.25 mpk, QD) it was 7.733 cm; in assay [3] (2.5 mpk, BID), 7.780 cm; in assay [3] (5 mpk, QD) it was 8.360 cm; in assay [3] (10 mpk, QD), 8.110 cm; in assay [3] (20 mpk, QD), 8.188 cm. Further, the “Recovery % (vs vehicle)” value in assay [3] (0.625 mpk, BID) is reported as 56.343%; in assay [3] (1.25 mpk, QD), 62.467%; in assay [3] (2.5 mpk, BID), 65.039%; in assay [3] (5 mpk, QD) it was 97.008%; in assay [3] (10 mpk, QD), 83.228%; in assay [3] (20 mpk, QD), 87.5%. For the same molecule, the “Reduction % (vs naïve)” value in assay [3] (0.625 mpk, BID) is given as 9.413%; in assay [3] (1.25 mpk, QD), 8.093%; in assay [3] (2.5 mpk, BID), 7.538%; in assay [3] (5 mpk, QD), 0.645%; in assay [3] (10 mpk, QD), 3.616%; in assay [3] (20 mpk, QD), 2.265%. Also, the “colon length comparing to vehicle group” value in assay [3] (different doses daily) is “significant improvement of colon length”.
Consider `Cn1nnc2cc(-c3ccc4cc([C@H](O)C5CCOCC5)sc4n3)cnc21` (single isomer, unassigned) [Compound B41R], for which the pIC50 was 9.02 in assay [1] and 8.67 at 15-PGDH in A549 cells. Further, the erosion scores entry in assay [2] (all doses evaluated) is “decreased severity”. Besides, the inflammation scores entry in assay [2] (all doses evaluated) is listed as “decreased severity”. Moreover, the “sum of histopathology scores” value in assay [2] (all doses evaluated) is listed as “decreased severity”. In addition, in assay [2] (at 0.1 mg/kg QD and >0.625 mg/kg QD), the gland loss scores result is on record as “decreased severity”. In addition, the “colon length comparing to vehicle group” value in assay [3] (2.5 mg/kg and 10 mg/kg daily) is reported as “significant improvement of colon length”. For the same molecule, the “Colon length Mean” value in assay [3] (0.1 mpk, QD) worked out at 7.0 cm; in assay [3] (0.25 mpk, QD), 6.8 cm; in assay [3] (0.625 mpk, QD), 7.3 cm; in assay [3] (2.5 mpk, QD), 7.3 cm; in assay [3] (10 mpk, QD), 7.9 cm. Besides, the “Recovery % (vs vehicle)” value is listed as 25.46% in assay [3] (0.1 mpk, QD); 11.18% in assay [3] (0.25 mpk, QD); 40.99% in assay [3] (0.625 mpk, QD); 45.34% in assay [3] (2.5 mpk, QD); 82.06% in assay [3] (10 mpk, QD). Moreover, the “Reduction % (vs naïve)” value in assay [3] (0.1 mpk, QD) was 14.63%; in assay [3] (0.25 mpk, QD), 17.44%; in assay [3] (0.625 mpk, QD) it was 11.59%; in assay [3] (2.5 mpk, QD), 10.73%; in assay [3] (10 mpk, QD), 3.52%.
As to `Cn1cc2cc(-c3ccc4cc([C@@H](O)C5CCOCC5)sc4n3)cnc2n1` [Compound B15S, (S)-(6-(2-methyl-2H-pyrazolo[3,4-b]pyridin-5-yl)thieno[2,3-b]pyridin-2-yl)(tetrahydro-2H-pyran-4-yl)methanol], the “times less potent than B15R in the biochemical assay” value in assay [1] (S-enantiomer versus R-enantiomer) is on record as “around 200”. Besides, the figures for the pIC50 (in assay [1]; on 15-PGDH in A549 cells) were 6.82 and 9.30, respectively. In assay [3] (5 mg/kg and 20 mg/kg once daily), the “colon length comparing to vehicle group” value is on record as “significant improvement of colon length”. The “Colon length Mean” value in assay [3] (0.625 mpk, BID) worked out at 6.51 cm; in assay [3] (1.25 mpk, QD), 6.60 cm; in assay [3] (2.5 mpk, BID) it was 6.52 cm; in assay [3] (5 mpk, QD), 6.90 cm; in assay [3] (20 mpk, QD) it was 6.97 cm. Further, the “Recovery % (vs vehicle)” value in assay [3] (0.625 mpk, BID) was determined as 13.4%; in assay [3] (1.25 mpk, QD) it was 17.0%; in assay [3] (2.5 mpk, BID), 13.7%; in assay [3] (5 mpk, QD), 29.0%; in assay [3] (20 mpk, QD), 31.9%. Besides, the “Reduction % (vs naïve)” value turned out to be 24.8% in assay [3] (0.625 mpk, BID); 23.7% in assay [3] (1.25 mpk, QD); 24.7% in assay [3] (2.5 mpk, BID); 20.3% in assay [3] (5 mpk, QD); 19.5% in assay [3] (20 mpk, QD).
